Columns and labels:
Experiment in all cases: chimeric receptor transactivation assay
Format in all cases: cell-based
Settings in all cases: value in parentheses
RARβ = biological target: T1, RARβ (Homo sapiens, UniProt P10826)
T1 sequence (P10826 183-417 limits assumed): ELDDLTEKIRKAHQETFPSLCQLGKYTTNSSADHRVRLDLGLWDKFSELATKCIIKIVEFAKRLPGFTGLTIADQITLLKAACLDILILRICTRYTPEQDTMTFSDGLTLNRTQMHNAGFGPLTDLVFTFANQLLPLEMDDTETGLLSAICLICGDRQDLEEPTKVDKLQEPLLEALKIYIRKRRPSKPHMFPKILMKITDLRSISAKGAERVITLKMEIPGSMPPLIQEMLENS
From the text: (§1) Assays described below measure the ability of a compound to bind to, and/or activate various retinoid receptor subtypes. When in these assays a compound binds to a given receptor subtype and activates the transcription of a reporter gene through that subtype, then the compound is considered an agonist of that receptor subtype. […] In the below described assays the ability of the compounds to bind to RARα, RARβ, RARγ, RXRα, RXRβ and RXRγ receptors, and the ability or inability of the compounds to activate transcription of a reporter gene through these receptor subtypes can be tested.
(§2) As far as specific assays are concerned, a chimeric receptor transactivation assay which tests for agonist-like activity in the RARα, RARβ, and RARγ, receptor subtypes, and which is based on work published by Feigner P. L. and Holm M (1989) Focus, 112 is described in detail in U.S. Pat. No. 5,455,265. The specification of U.S. Pat. No. 5,455,265 is hereby expressly incorporated by reference.
A holoreceptor transactivation assay and a ligand binding assay which measure the antagonist/agonist like activity of the compounds of the invention, or their ability to bind to the several retinoid receptor subtypes, respectively, are described in published PCT Application No. WO WO93/11755 (particularly on pages 30-33 and 37-41) published on Jun. 24, 1993, the specification of which is also incorporated herein by reference. […] The results obtained in this assay are expressed in EC50 numbers, as they are also in the chimeric receptor transactivation assay. The results of ligand binding assay are expressed in Kd numbers. (See Cheng et al. Biochemical Pharmacology Vol. 22 pp 3099-3108, expressly incorporated herein by reference.)

RARγ = biological target: T2, RARγ (Homo sapiens, UniProt P13631)
T2 sequence (P13631 185-419 limits assumed): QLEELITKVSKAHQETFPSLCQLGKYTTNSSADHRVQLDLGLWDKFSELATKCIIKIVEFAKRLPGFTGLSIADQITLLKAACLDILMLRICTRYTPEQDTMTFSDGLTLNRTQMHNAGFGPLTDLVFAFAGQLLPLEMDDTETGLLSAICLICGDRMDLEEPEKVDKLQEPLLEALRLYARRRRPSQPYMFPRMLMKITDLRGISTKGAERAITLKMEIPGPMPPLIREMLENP
From the text: as §1
as §2, with “reference. The numeric results obtained with several preferred compounds of this invention in this assay are shown below in Table 1.” for “reference.”
(§3) A holoreceptor transactivation assay and a ligand binding assay which measure the antagonist/agonist like activity of the compounds of the invention, or their ability to bind to the several retinoid receptor subtypes, respectively, are described in published PCT Application No. WO WO93/11755 (particularly on pages 30-33 and 37-41) published on Jun. 24, 1993, the specification of which is also incorporated herein by reference. A detailed experimental procedure for holoreceptor transactivations has been described by Heyman et al. Cell 68, 397-406, (1992); Allegretto et al. J. Biol. Chem. 268, 26625-26633, and Mangelsdorf et al. The Retinoids: Biology, Chemistry and Medicine, pp 319-349, Raven Press Ltd., New York, which are expressly incorporated herein by reference. The results obtained in this assay are expressed in EC50 numbers, as they are also in the chimeric receptor transactivation assay. The results of ligand binding assay are expressed in Kd numbers. (See Cheng et al. Biochemical Pharmacology Vol. 22 pp 3099-3108, expressly incorporated herein by reference.)

RARα = biological target: T3, RARα (Homo sapiens, UniProt P10276)
T3 sequence (P10276 183-417 limits assumed): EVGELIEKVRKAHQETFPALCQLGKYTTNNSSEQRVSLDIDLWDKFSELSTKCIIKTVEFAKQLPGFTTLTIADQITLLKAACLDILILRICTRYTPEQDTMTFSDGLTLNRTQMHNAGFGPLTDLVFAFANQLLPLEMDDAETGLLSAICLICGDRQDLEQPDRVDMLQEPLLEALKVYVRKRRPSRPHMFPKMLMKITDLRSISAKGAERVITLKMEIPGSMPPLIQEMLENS
From the text: as §1
as §2, with “reference. The numeric results obtained with several preferred compounds of this invention in this assay are shown below in Table 1.” for “reference.”
as §3

Row | RAR (EFFICACY) β (RARβ) | RAR (EFFICACY) γ (RARγ) | RAR (EFFICACY) α (RARα) | SMILES
1 | (80) | (67) | – | Cc1cc(C#Cc2ccc(C(=O)O)cc2)ccc1C1(OCc2ccccc2)CC1 [Compound 81, 4-[4-(l -Benzyloxycyclopropyl)-3-methyl-phenylethynyl]-benzoic acid]
2 | (50) | (46) | (20) | Cc1cc(C#Cc2ccc(C(=O)O)cc2)ccc1C1(OCC(C)(C)C)CC1 [Compound 89, 4-[4-[1-(2,2-Dimethylpropyloxy)-cyclopropyl]-3-methyl-phenylethynyl]-benzoic acid]
3 | (37) | – | – | O=C(O)c1ccc(C#Cc2ccc(C3(NCc4ccccc4)CC3)cc2)cc1 [Compound 112, 4-[4-(1-Benzylamino-cyclopropyl)-phenylethynyl]-benzoic acid]
4 | (44) | (42) | – | CCCN(CCC)C1(c2ccc(C#Cc3ccc(C(=O)O)cc3)cc2)CC1 [Compound 110, 4-[4-(1-Dipropylamino-cyclopropyl)-phenylethynyl]-benzoic acid]
5 | (77) | (65) | (60) | Cc1cc(C#Cc2ccc(C(=O)O)cc2)ccc1C1(OC(C)C)CC1 [Compound 85, 4-[4-(1-Isopropoxycyclopropyl)-3-methyl-phenylethynyl]-benzoic acid]
6 | (36) | (10) | (15) | CCCNC1(c2ccc(C#Cc3ccc(C(=O)O)cc3)cc2)CC1 [Compound 108, 4-[4-(1-Propylamino-cyclopropyl)-phenylethynyl]-benzoic acid]
7 | (39) | (24) | – | CC(C)OC1(c2ccc(C#Cc3ccc(C(=O)O)cc3)cc2)CC1 [Compound 73, 4-[4-(1-Isopropoxycyclopropyl)-phenylethynyl]-benzoic acid]
8 | (39) | (55) | (114) | CCc1cc(C#Cc2ccc(C(=O)O)cc2)ccc1C1(OCc2ccccc2)CC1 [Compound 93, 4-[4-(1-Benzyloxycyclopropyl)-3-ethyl-phenylethynyl]-benzoic acid]

Continued, compound first:

Row | SMILES | RAR (EFFICACY) β (RARβ) | RAR (EFFICACY) γ (RARγ) | RAR (EFFICACY) α (RARα)
9 | CN(C1CC1)C1CCC(C)(C)c2cc(C#Cc3ccc(C(=O)O)cc3)ccc21 (centres unmarked) [Compound 3, 4-[(5-Cyclopropyl-methyl-amino)-8,8-dimethyl-5,6,7,8-tetrahydro-naphthalene-2yl-ethynyl]-benzoic acid] | (54) | (52) | (28)
10 | CN(C1CC1)C1CCC(C)(C)c2cc(C#Cc3ccc(C(=O)O)c(F)c3)ccc21 (centres unmarked) [Compound 13, 4-[5-(Cyclopropyl-methyl-amino)-8,8-dimethyl-5 6,7,8-tetrahydro-naphthalene-2-yl-ethynyl]-2-fluoro benzoic acid] | (6.6) | (9) | –
11 | CC1(C)CCC(=O)c2ccc(C#Cc3ccc(C(=O)O)c(F)c3)cc21 [Compound 10, 2-Fluoro-4-(8,8-dimethyl-5-oxo-5,6,7,8-tetrahydro-naphthalen-2yl-ethynyl)-benzoic acid] | (86) | (94) | (146)
12 | CC1(C)CC2(CC2)Oc2ccc(C#Cc3ccc(C(=O)O)cc3)cc21 [Compound 40, Benzoic acid 4-[(3,4-dihydro-4,4-dimethylspiro[2H-1-benzopyran-2,1′-cyclopropane]-6-yl)ethynyl]-] | (126) | (140) | (207)
13 | CN(C1CC1)C1CCC(C)(C)c2cc(C#Cc3ccc(CC(=O)O)cc3)ccc21 (centres unmarked) [Compound 8, 4-[(5-(Cyclopropyl-methyl-amino)-8,8-dimethyl-5,6,7,8-tetrahydro-naphthalene-2-yl-ethynyl)-phenyl]-acetic acid] | (96) | – | –
14 | CC1(C)CCC(=O)c2ccc(C#Cc3ccc(CC(=O)O)cc3)cc21 [Compound 5, 4-[(8,8-Dimethyl-5-oxo-5,6,7,8-tetrahydro-naphthalene-2-yl-ethynyl)-phenyl]-acetic acid] | (36) | – | –
15 | COC1(c2ccc(C#Cc3ccc(C(=O)O)cc3)cc2)CC1 [Compound 69, 4-[4-(1-Methoxycyclopropyl)-phenylethynyl]-benzoic acid] | (50) | (31) | (10)
16 | CC1(C)CC2(CC2)Oc2ccc(C#Cc3ccc(C(=O)O)c(F)c3)cc21 [Compound 44, 2-Fluoro-benzoic acid, 4-[(3,4-dihydro-4,4-dimethylspiro[2H-1-benzopyran-2,1′-cyclopropane]-6-yl)ethynyl]-] | (100) | (116) | (138)

From US20030186947A1, “Compounds having activity as inhibitors of cytochrome P450RAI” (priority 2000, published 2003)
